Columns and labels:
[1] = tested on: influenza virus A/Aichi/2/68 (H3N2); experiment: Body weight change of mice after influenza virus infection (Example 1); format: in vivo, BALB/c female mice; conditions: mouse; feed with 0.5 wt % L-cystine and/or 0.2 wt % L-theanine for 2 weeks; 10^5 PFU nasally; versus control group on basic feed; FIG. 1
Description: 4-week-old BALB/c female mice in the growth period were preliminarily raised on a solid feed (CRF-1 solid feed, Charles River Japan, inc.) for one week, then preliminarily raised on a powder feed (CRF-1 powder feed, Charles River Japan, inc.) for one week, and when they reached 6 weeks of age, the feed was changed to a feed containing 20 wt % of casein as a protein source (basic feed: composition: α-corn starch 68.3 wt %, casein 20 wt %, mineral mixture 3.5 wt %, vitamin mixture 1 wt %, cellulose powder 2 wt %, corn-oil 5 wt %, choline bitartrate 0.2 wt %), the same feed supplemented with 0.5 wt % of L-cystine as an amino acid, the same feed supplemented with 0.2 wt % of L-theanine as an amino acid, and the same feed supplemented with 0.5 wt % of L-cystine and 0.2 wt % of L-theanine as amino acids (the present invention), and further raised for 2 weeks. Those continuously raised on the basic feed were used as a control group. Ten mice were used for the test for each group.
At two weeks of the amino acid addition feed administration, 10^5 PFU influenza virus A/Aichi/2/68 (H3N2) was nasally inoculated, the body weight of the mice was measured immediately before virus inoculation and day 5 of infection.
Thus, it was clarified that a concurrent use of L-theanine enhanced the action of L-cystine.

Escherichia coli = conditions: Chem. Pharm. Bull. 28, 3549-3554, 1980; cited from earlier work
trichomonas = conditions: extremely high concentration of theanine, in vitro cultivation system; Nature 166, 352, 1950; cited from earlier work
Staphylococcus aureus = conditions: J. Biol. Chem. 171, 387, 1947; Chem. Pharm. Bull. 28, 3549-3554, 1980; cited from earlier work

Compound | body weight change at day 5 of influenza virus infection [1] | growth of Escherichia coli (Escherichia coli) | trichomonas growth (trichomonas) | growth of Staphylococcus aureus (Staphylococcus aureus)
N[C@@H](CSSC[C@H](N)C(=O)O)C(=O)O [L-cystine] | suppressed somewhat | – | – | –
CCNC(=O)CC[C@H](N)C(=O)O [theanine] | – | suppression of growth of Staphylococcus aureus and Escherichia coli | suppression of trichomonas growth | suppression of growth of Staphylococcus aureus
CCNC(=O)CC[C@H](N)C(=O)O [L-theanine] | body weight decrease of the same level as that of the control group | – | – | –

Reference: patent US7767714B2, “Method of preventing infectious diseases” (Ajinomoto Co., Inc., priority 2002, dated 2010)
